This is an account of results in PMC9338973, “Rosmarinus officinalis L. hexane extract: phytochemical analysis, nanoencapsulation, and in silico, in vitro, and in vivo anti-photoaging potential evaluation” (Scientific Reports, 2022).

Values after ≈ are worked out from the molar mass of the structure shown. Values joined by “and” are separate entries in the source; they are usually repeats but may differ in a detail not shown here. Identical values can stand only once.

A short description of data set [1]: DPPH radical scavenging activity. The method, then:
The scavenging activity of the stable 2,2-diphenyl-1-picrylhydrazyl (DPPH) free radical by RHE was assessed according to the method reported by Boly et al.[112].
A general note: The DPPH test is a chemical assay of radical scavenging.

The target in data set [2] is T1, Porcine pancreatic elastase (Sus scrofa, UniProt P00772).
T1 construct: purchased Molecular Probes
T1 sequence (P00772 27-266): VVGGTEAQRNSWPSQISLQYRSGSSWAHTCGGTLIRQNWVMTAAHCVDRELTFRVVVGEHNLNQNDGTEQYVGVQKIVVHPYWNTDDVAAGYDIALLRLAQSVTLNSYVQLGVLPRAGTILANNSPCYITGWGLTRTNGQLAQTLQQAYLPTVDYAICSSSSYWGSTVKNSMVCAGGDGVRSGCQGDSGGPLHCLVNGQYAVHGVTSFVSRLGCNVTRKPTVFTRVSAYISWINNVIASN
Description: Anti-elastase assay (EnzCheck, fluorimetric). Type of data set: biochemical. The method, then:
The elastase inhibitory activity was assessed fluorimetrically using the EnzCheck® elastase assay kit (Molecular Probes, Laiden, Netherlands). A 1 mg/mL stock solution of the substrate (DQ elastin) was prepared in deionized water. Porcine pancreatic elastase stock solution was prepared in deionized water at 100 U/mL and dilutions were made in Tris–HCL buffer. Pre-incubation of 50 µL of different dilutions of the extract (inhibitor) with 100 µL of the enzyme was done for 15 min followed by the addition of the substrate (50 µL). Controls were prepared with buffer instead of extract. Fluorescence intensity was continuously measured for 20 min in a fluorescence microplate reader equipped with standard fluorescein filters (λex 505 nm, λem 515 nm). Subtraction of background fluorescence was done in no-enzyme wells. 1,10-Phenathrolinewas used as a standard elastase inhibitor. The IC50 is the concentration of the extract required to inhibit 50% of elastase activity.
The percentage of elastase inhibition(%)=(1-S/C)×100 where S is the corrected fluorescence of the extract samples and C is the corrected fluorescence of the control.

The target of a further data set is collagenase. Put plainly: Anti-collagenase assay (fluorimetric, BODIPY-gelatin). Type of data set: biochemical. The method, then: The evaluation of collagenase inhibitory activity was performed fluorimetrically in a microplate reader. Briefly, the self-quenched BODIPY conjugate of gelatin (Type B) was used as a fluorogenic substrate to monitor the activity of collagenase (Biovision, CA, USA). Collagenase stock solution was prepared in 50 mM Tricine buffer at 0.8 U/mL and the substrate (BODIPY) was dissolved in Tricine buffer to 2 mM. One microliter of different concentrations of the extract (1, 10, 100, and 1000 µg/mL) was incubated with the 5 µL collagenase in buffer and 44 µL Tricine buffer for 15 min before adding the substrate. […] The reaction is initiated by mixing two µL of the substrate with the previous reaction mixture. Negative controls were prepared with the buffer. Fluorescence intensity was monitored (λex 490 nm, λem 520 nm, 515 nm cut-off) in a kinetic mode at 37 °C for 30–60 min.
The percentage of collagenase inhibition(%)=(1-S/C)×100 where S is the corrected fluorescence of the extract sample and C is the corrected fluorescence of the control.

The next data set has as its target elastase enzyme. Also on record: method as in doi:10.1517/13543776.3.8.1237. Conditions: cited from earlier work.
The nature of a further data set: Cytotoxicity MTT assay. Type of data set: cell-based. Conditions: human, WI-38 normal lung fibroblast cells, WI38 cell line, read-out: cytotoxic effect IC50. The method, then:
The cytotoxicity of RHE extract was evaluated against human normal lung fibroblasts cell line WI-38 using MTT (3-(4,5-dimethylthiazol-2-yl)2,5-diphenyl tetrazolium bromide) assay[116] as recently described.

In the case of `Cc1c(C)c2c(c(C)c1O)CCC(C)(C(=O)O)O2` (centres unmarked) [Trolox], the “DPPH (IC50, µg/mL)” value in data set [1] is 6.1 ± 0.2 µg/mL and 6.11 ± 0.2 µg/mL.

In data set [2], `c1cnc2c(c1)ccc1cccnc12` [1,10-Phenanthroline] had an IC50 of 142 µM. Moreover, the “IC50 Collagenase” value against collagenase is listed as 340.8 ± 17.3 µg/mL (≈ 1890 µM).

As to `CC1=CC(=O)[C@@H]2C[C@H]1C2(C)C` [Verbenone], the “IC50 of elastase enzyme inhibition” value on elastase enzyme is “picomolar range”.

With `Nc1nc2c(ncn2COCCO)c(=O)[nH]1` [acyclovir], the IC50 in the data set “Cytotoxicity MTT assay” came out at 48.6 ± 3.2 µg/mL (≈ 216 µM).

A word on the IC50: it is the point on the concentration scale where inhibition reaches its midpoint.
